According to ChEMBL document CHEMBL1126757, “Benzoquinazoline inhibitors of thymidylate synthase: enzyme inhibitory activity and cytotoxicity of some 3-amino- and 3-methylbenzo[f]quinazolin-1(2H)-ones” (J Med Chem, 1993):

The compounds below were run against T1, Thymidylate synthase (Homo sapiens, UniProt P04818) (assay: not given). Details: not given.
Target sequence in this assay (P04818 whole entry): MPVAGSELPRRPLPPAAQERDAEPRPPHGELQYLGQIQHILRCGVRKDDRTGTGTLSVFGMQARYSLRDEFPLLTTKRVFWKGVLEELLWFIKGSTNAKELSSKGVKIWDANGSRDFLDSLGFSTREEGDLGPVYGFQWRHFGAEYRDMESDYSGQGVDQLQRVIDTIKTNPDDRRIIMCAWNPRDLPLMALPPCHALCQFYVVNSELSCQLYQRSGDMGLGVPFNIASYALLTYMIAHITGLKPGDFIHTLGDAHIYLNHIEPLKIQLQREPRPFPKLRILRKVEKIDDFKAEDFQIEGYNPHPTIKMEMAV

| IC50 | SMILES |
| --- | --- |
| 193000 nM | Cc1nc2c(c(=O)[nH]1)-c1cccc(Cl)c1CC2 |
| 178 nM | Cc1ccc2ccc3nc(N)nc(O)c3c2c1 |
| 600 nM | C#Cc1ccc2ccc3nc(N)nc(O)c3c2c1 |

Each compound was assayed against T2, Thymidylate synthase (Escherichia coli, UniProt C3SWJ7) (assay: Inhibition against thymidylate synthase (TS) in Escherichia coli). Details: read-out: I50.
T2 sequence (C3SWJ7 whole entry): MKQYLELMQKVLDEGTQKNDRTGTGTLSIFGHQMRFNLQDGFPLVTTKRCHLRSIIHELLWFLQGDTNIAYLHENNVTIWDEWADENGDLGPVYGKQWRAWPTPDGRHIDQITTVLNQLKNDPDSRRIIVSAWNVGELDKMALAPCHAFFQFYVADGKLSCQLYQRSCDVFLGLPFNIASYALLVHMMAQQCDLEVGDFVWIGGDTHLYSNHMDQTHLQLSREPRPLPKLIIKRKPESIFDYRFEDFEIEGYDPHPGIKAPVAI

| IC50 | SMILES |
| --- | --- |
| 109 µM | Nc1nc2c(c(=O)[nH]1)-c1cccc(Br)c1CC2 |
| 5 µM | Nc1nc(O)c2c(n1)CCc1ccc(I)cc1-2 |
| 5 µM | Cc1cc(C)c2ccc3nc(N)[nH]c(=O)c3c2c1 |
| 6.7 µM | Nc1nc2c(c(=O)[nH]1)-c1cc(Cl)c(Cl)cc1CC2 |
| 750 µM | Nc1nc2c(c(=O)[nH]1)-c1ccc(F)cc1CC2 |
| 762 µM | COc1cc2c(cc1OC)-c1c(O)nc(N)nc1CC2 |
| 59 µM | Cc1cccc2c1CCc1nc(N)[nH]c(=O)c1-2 |
| 43 µM | Nc1nc(O)c2c(n1)CCc1cc([N+](=O)[O-])ccc1-2 |
| 2 µM | Nc1nc(O)c2c(n1)CCc1ccc(Br)cc1-2 |
| 97.5 µM | Nc1nc2c(c(=O)[nH]1)-c1cc(Br)c([N+](=O)[O-])cc1CC2 |
| 23 µM | CC1Cc2nc(N)nc(O)c2-c2ccccc21 (centres undefined) |
| 25 µM | Nc1nc2ccc3c(Br)c(N)c(Br)cc3c2c(=O)[nH]1 |
| 1 µM | Cc1cc2nc(N)[nH]c(=O)c2c2ccccc12 |
| 104 µM | Nc1nc2ccc3c([N+](=O)[O-])c(Br)ccc3c2c(=O)[nH]1 |
| 7 µM | Nc1nc(O)c2c(n1)CCc1ccccc1-2 |
| 26.3 µM | C#Cc1ccc2c(c1)-c1c(nc(N)[nH]c1=O)CC2 |
| 2.9 µM | Nc1nc2c(c(=O)[nH]1)-c1cc(Br)c(N)cc1CC2 |

| IC50 | SMILES |
| --- | --- |
| 250 µM | COc1cccc2c1CCc1nc(N)nc(O)c1-2 |
| 240 µM | COc1ccc2c(c1)CCc1nc(N)nc(O)c1-2 |
| 1.6 µM | Nc1nc2c(c(=O)[nH]1)-c1cc(Cl)ccc1CC2 |
| 6.9 µM | Cc1nc(O)c2c(ccc3ccc(Br)cc32)n1 |
| 119 µM | Cc1nc2c(c(=O)[nH]1)-c1ccccc1CC2 |
| 4 µM | Nc1nc(O)c2c(n1)CCc1ccc(F)cc1-2 |
| 1.2 µM | CSc1ccc2c(c1)-c1c(nc(N)[nH]c1=O)CC2 |
| 5 µM | COc1ccc2ccc3nc(N)nc(O)c3c2c1 |
| 89 µM | Nc1ccc2c(c1)CCc1nc(N)[nH]c(=O)c1-2 |
| 8.69 µM | Cc1nc2c(c(=O)[nH]1)-c1cc(Br)ccc1CC2 |
| 31.7 µM | CCSc1ccc2c(c1)-c1c(nc(N)[nH]c1=O)CC2 |
| 32.8 µM | Cc1nc(O)c2c(n1)CCc1ccc(F)cc1-2 |
| 334 µM | Nc1nc2c(c(=O)[nH]1)-c1ccc(Cl)cc1CC2 |
| 1.47 µM | Cc1ccc2ccc3nc(N)nc(O)c3c2c1 |
| 28 µM | Nc1nc(O)c2c(ccc3cc(Br)c([N+](=O)[O-])cc32)n1 |
| 14 µM | C#Cc1ccc2ccc3nc(N)nc(O)c3c2c1 |

What follows are compounds tested on Thymidylate synthase (Bos taurus) (assay: Tested against thymidylate synthase (TS) in calf thymus at 765 uM). Details: not given.

| inhibition | SMILES |
| --- | --- |
| 25% | COc1cc2c(cc1OC)-c1c(O)nc(N)nc1CC2 |

These compounds were tested against T1, Thymidylate synthase (assay: Tested for inhibition against thymidylate synthase (TS) in human). Details: not given.
Target sequence in this assay (P04818 whole entry): as the sequence (P04818 whole entry) above

| IC50 | SMILES |
| --- | --- |
| 2960 nM | Nc1nc2c(c(=O)[nH]1)-c1cc(Cl)c(Cl)cc1CC2 |

Same assay, conditions: read-out: I50

| IC50 | SMILES |
| --- | --- |
| 1600 nM | COc1ccc2ccc3nc(N)nc(O)c3c2c1 |

What follows are compounds tested against T1, Thymidylate synthase (assay: Tested for percent inhibition against thymidylate synthase (TS) in human at 63 uM). Details: not given.
Target sequence in this assay (P04818 2-313 limits assumed): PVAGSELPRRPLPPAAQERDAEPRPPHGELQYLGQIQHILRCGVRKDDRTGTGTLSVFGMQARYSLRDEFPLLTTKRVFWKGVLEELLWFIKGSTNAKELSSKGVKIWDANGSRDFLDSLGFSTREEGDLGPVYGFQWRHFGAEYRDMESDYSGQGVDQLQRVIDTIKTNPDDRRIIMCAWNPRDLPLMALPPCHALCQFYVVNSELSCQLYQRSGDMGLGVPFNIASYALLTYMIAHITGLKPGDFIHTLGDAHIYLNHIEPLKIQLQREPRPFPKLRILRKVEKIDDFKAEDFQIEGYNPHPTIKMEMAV

| inhibition | SMILES |
| --- | --- |
| 23% | Nc1nc(O)c2c(ccc3c([N+](=O)[O-])cccc32)n1 |

What follows are compounds tested against Thymidylate synthase (Escherichia coli) (UniProt C3SWJ7) (assay: Tested for percent inhibition against thymidylate synthase (TS) in Escherichia coli at 764.0 uM). Details: not given.
Chain of Thymidylate synthase (Escherichia coli) (C3SWJ7 1-264): as the sequence (C3SWJ7 whole entry) above

| inhibition | SMILES |
| --- | --- |
| 41% | Nc1nc(O)c2c(ccc3cc(F)cc([N+](=O)[O-])c32)n1 |

What follows are compounds tested against Thymidylate synthase (Escherichia coli) (UniProt C3SWJ7) (assay: Tested for percent inhibition against thymidylate synthase (TS) in Escherichia coli at 63.2 uM). Details: not given.

| inhibition | SMILES |
| --- | --- |
| 29% | Nc1nc(O)c2c(ccc3c([N+](=O)[O-])cccc32)n1 |

Each compound was assayed on Thymidylate synthase (Candida albicans) (assay: Tested for percent inhibition against thymidylate synthase (TS) in Candida albicans at 63.2 uM). Details: not given.

| inhibition | SMILES |
| --- | --- |
| 0% | Nc1nc(O)c2c(ccc3c([N+](=O)[O-])cccc32)n1 |

These compounds were tested on SW480 (assay: cells). Details: Homo sapiens.

| IC50 | SMILES |
| --- | --- |
| 12 µM | Oc1nc(NCc2ccccc2)nc2ccc3ccc(Cl)cc3c12 |
| 15 µM | Nc1nc(O)c2c(n1)CCc1ccc(I)cc1-2 |
| > 100 µM | Cc1nc(O)c2c(ccc3ccccc32)n1 |
| 50 µM | Cc1nc(O)c2c(ccc3c(I)cccc32)n1 |
| 100 µM | Cc1nc(O)c2c(ccc3ccc(F)cc32)n1 |
| 80 µM | Nc1nc2c(c(=O)[nH]1)-c1ccc(F)cc1CC2 |
| 25 µM | Nc1nc(O)c2c(n1)CCc1ccc(Br)cc1-2 |
| 30 µM | Nc1nc2c(c(=O)[nH]1)-c1ccc3ccccc3c1CC2 |
| 12 µM | Nc1nc2c(c(=O)[nH]1)-c1cc(Br)c([N+](=O)[O-])cc1CC2 |
| > 100 µM | Nc1nc(O)c2c(n1)CCc1ccccc1-2 |
| 35 µM | C#Cc1ccc2c(c1)-c1c(nc(N)[nH]c1=O)CC2 |
| 15 µM | Nc1nc2c(c(=O)[nH]1)-c1cc(Br)c(N)cc1CC2 |
| > 100 µM | Cc1cc(C)c2c(c1)-c1c(nc(N)[nH]c1=O)CC2 |
| 25 µM | Nc1nc2c(c(=O)[nH]1)-c1cc(Cl)ccc1CC2 |
| 50 µM | Cc1nc(O)c2c(ccc3c(Cl)cccc32)n1 |
| 6 µM | Cc1nc(O)c2c(ccc3ccc(Br)cc32)n1 |
| > 100 µM | Cc1nc2c(c(=O)[nH]1)-c1ccccc1CC2 |
| 80 µM | Nc1nc(O)c2c(n1)CCc1ccc(F)cc1-2 |
| 60 µM | CSc1ccc2c(c1)-c1c(nc(N)[nH]c1=O)CC2 |
| 20 µM | COc1ccc2ccc3nc(N)nc(O)c3c2c1 |
| 50 µM | Cc1nc(O)c2c(ccc3c(Br)cccc32)n1 |
| 65 µM | Cc1nc2c(c(=O)[nH]1)-c1cc(Br)ccc1CC2 |
| 40 µM | CCSc1ccc2c(c1)-c1c(nc(N)[nH]c1=O)CC2 |
| 50 µM | Nc1nc(O)c2c(ccc3cc(F)cc([N+](=O)[O-])c32)n1 |
| 10 µM | Cc1nc(O)c2c(ccc3ccc(Cl)cc32)n1 |
| > 100 µM | Cc1nc2c(c(=O)[nH]1)-c1cc(Cl)ccc1CC2 |
| > 100 µM | Cc1nc(O)c2c(n1)CCc1ccc(F)cc1-2 |
| > 100 µM | Cc1nc2c(c(=O)[nH]1)-c1cccc(Cl)c1CC2 |
| 30 µM | Cc1ccc2ccc3nc(N)nc(O)c3c2c1 |
| 20 µM | C#Cc1ccc2ccc3nc(N)nc(O)c3c2c1 |

What follows are compounds tested against T2, Thymidylate synthase (assay: Tested for inhibition against thymidylate synthase (TS) in Escherichia coli). Details: not given.

| IC50 | SMILES |
| --- | --- |
| 36 µM | Nc1nc2c(c(=O)[nH]1)-c1ccc3ccccc3c1CC2 |
| 13 µM | Cc1cc(C)c2c(c1)-c1c(nc(N)[nH]c1=O)CC2 |

What follows are compounds tested against T2, Thymidylate synthase (assay: Tested against thymidylate synthase (TS) in E. coli). Details: read-out: I50.

| IC50 | SMILES |
| --- | --- |
| 30.1 µM | Cc1nc(O)c2c(ccc3ccccc32)n1 |
| 29.6 µM | Cc1nc(O)c2c(ccc3ccc(F)cc32)n1 |
| 19.8 µM | Cc1nc(O)c2c(n1)CCc1ccc(I)cc1-2 |
| 18.8 µM | Cc1nc2c(c(=O)[nH]1)-c1cc(Cl)ccc1CC2 |
